In experiment [1] the test system is β-galactosidase. Kind of experiment: Cleavage of the substrate by β-galactosidase (specificity). The format is biochemical. As to the method:
(§1) The activity of the β-galactosidase in human urine could be kinetically determined by the use of 3-O-([…])-3-hydroxy-2-nitropyridine. For this purpose 0.2 ml of 10-fold concentrated normal urine was added to 1 ml of buffered substrate solution and the extinction change recorded at 405 nm and 22° C. Under these conditions an extinction difference of 1.2 mE/min was measured.
(§2) The β-galactosidase activity could be kinetically measured in human urine by the use of 2H-7-O-(β-D-galactopyranosyl)-4-methyl-8-nitrobenzopyran-2-one (compound S15). An extinction change of 4 mE/min was recorded at 23° C. and 366 nm with the use of 200 μl of buffered substrate solution and 200 μl of urine of normal concentration. […] Also, β-galactosidase in human urine could be kinetically determined by using resorufin-β-D-galactopyranoside (compound S6). […] The activity of β-glucuronidase in human urine could be kinetically measured with 2H-7-O-(β-D-glucuronopyranosyl)-4-methyl-8-nitrobenzopyran-2-one (compound S9).

In experiment [2] the target is T1, β-galactosidase (Homo sapiens, UniProt P16278).
T1 construct: from tissue; host or cells: human urine
T1 sequence (P16278 29-677): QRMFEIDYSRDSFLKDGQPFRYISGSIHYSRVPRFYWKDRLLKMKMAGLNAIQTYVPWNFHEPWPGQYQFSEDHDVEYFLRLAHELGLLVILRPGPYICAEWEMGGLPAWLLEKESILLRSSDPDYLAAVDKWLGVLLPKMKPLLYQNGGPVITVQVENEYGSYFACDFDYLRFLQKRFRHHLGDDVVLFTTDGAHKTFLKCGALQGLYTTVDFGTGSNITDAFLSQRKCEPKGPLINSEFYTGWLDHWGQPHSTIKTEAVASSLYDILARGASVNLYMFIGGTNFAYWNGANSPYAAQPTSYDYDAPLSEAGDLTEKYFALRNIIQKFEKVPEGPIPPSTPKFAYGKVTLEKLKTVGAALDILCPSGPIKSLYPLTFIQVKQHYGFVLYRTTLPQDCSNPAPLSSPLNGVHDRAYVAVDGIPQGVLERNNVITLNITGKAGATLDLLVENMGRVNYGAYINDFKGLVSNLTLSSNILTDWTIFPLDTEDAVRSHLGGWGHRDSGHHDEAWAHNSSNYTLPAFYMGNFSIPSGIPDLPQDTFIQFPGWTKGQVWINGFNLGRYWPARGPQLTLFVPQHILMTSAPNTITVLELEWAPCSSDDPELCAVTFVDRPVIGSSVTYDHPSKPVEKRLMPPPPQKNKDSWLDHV
Nature of the experiment: Kinetic determination of β-galactosidase activity in human urine. In kind it is biochemical. How it is done: as §2

For experiment [3], the system named is leukocyte esterase. Kind of experiment: Determination of leukocyte esterase with test strips. The format is biochemical. The conditions noted are these: test strips immersed in leukocyte suspensions. As to the method:
Indicator paper No. 218 supplied by Macherey-Nage, Dueren, Federal Republic of Germany, was impregnated successively with the following solutions and was dried:
(a) aqueous boric acid buffer 0.25 mol/l, pH 8
(b) tosylalanylresorufin 0.25 g dissolved in 1 l of ethyl acetate.
The drying temperature selected for solution (a) was about 80° C. and that for (b) was about 120° C. The samples used were suspensions containing various concentrations of leukocytes, into which the test strips were briefly immersed. After about 1 minute a red-violet color developed, the intensity of which depended on the concentration of leukocytes. The detection sensitivity of this test system is about 1000 leukocytes per microliter.

In experiment [4] the target is T2, N-acetylglucosaminidase (Homo sapiens, UniProt P06865+P07686).
T2 construct: from tissue; host or cells: human urine, 10-fold concentrated
T2 sequence (P07686 122-556): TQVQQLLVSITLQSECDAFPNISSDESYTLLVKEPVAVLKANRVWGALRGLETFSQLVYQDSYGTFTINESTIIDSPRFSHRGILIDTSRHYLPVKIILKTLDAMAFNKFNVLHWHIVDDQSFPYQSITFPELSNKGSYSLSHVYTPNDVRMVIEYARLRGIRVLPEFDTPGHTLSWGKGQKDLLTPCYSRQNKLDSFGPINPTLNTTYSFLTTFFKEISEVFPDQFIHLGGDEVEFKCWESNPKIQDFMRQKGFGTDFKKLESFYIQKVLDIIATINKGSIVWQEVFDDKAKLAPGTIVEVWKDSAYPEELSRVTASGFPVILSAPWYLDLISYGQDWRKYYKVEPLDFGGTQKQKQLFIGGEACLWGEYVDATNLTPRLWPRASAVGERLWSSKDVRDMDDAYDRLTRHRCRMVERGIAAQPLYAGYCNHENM
T2 sequence (P06865 89-529): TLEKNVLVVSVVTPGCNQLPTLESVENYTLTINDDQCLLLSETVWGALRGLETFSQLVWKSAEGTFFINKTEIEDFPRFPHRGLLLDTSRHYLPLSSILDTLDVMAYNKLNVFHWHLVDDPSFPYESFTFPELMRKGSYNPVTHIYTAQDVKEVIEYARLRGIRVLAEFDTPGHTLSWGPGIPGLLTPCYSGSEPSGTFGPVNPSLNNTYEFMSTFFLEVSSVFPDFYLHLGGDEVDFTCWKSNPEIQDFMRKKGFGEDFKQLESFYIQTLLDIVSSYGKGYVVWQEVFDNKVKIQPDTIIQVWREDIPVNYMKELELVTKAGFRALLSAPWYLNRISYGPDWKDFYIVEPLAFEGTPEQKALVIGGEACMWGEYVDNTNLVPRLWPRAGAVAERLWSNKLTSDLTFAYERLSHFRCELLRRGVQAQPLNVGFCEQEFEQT
Nature of the experiment: Kinetic determination of N-acetylglucosaminidase activity in human urine. The format is biochemical. The conditions noted are these: 365 nm, 10-fold concentrated normal urine. How it is done:
The activity in human urine (10-fold concentrated) can also be kinetically determined with S8. The determination with 0.5 buffered substrate solution and 0.1 ml 10-fold concentrated normal urine at 37° C. and 365 nm gave an absorbance change of 0,023 A/min at pH 5.5 and of 0,014 A/min at pH 4.5.

Experiment [5] relates to N-acetyl-β-glucosaminidase. Nature of the experiment: Determination of N-acetylglucosaminidase (enzyme from ox kidney). The format is biochemical. As to the method: The sensitivity of the substrates p-nitrophenyl N-acetylaminoglucoside and 2H-7-O-(2-acetamido-2-deoxy-D-glucopyranosyl)-4-methyl-8-nitrobenzopyran-2-one ([…]) were compared to each other using N-acetyl-β-glucosaminidase from ox kidney. To 0.5 ml of substrate solution was added 0.1 ml of an enzyme solution diluted 1:101 (Sigma) and the absorbance change determined at 22° C. and 405 or 365 nm.

Experiment [6] has as its target T3, acid phosphatase (Homo sapiens, UniProt P15309).
T3 construct: from tissue; host or cells: seminal plasma, diluted 1:101
T3 sequence (P15309 33-386): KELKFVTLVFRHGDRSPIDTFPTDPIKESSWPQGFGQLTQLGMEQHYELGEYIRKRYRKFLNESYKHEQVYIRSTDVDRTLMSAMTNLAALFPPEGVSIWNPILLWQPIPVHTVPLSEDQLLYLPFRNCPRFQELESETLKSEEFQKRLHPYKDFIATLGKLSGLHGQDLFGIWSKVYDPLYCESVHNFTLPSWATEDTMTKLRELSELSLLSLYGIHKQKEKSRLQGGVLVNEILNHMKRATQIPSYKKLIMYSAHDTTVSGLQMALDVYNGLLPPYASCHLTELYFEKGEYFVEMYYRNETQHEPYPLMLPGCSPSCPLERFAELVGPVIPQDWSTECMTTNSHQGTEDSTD
Kind of experiment: Kinetic determination of acid phosphatase in seminal plasma. The format is biochemical. How it is done: The activity of acid phosphatase could be kinetically determined substantially more sensitively with 2H-7-O-4-methyl-8-nitrobenzopyran-2-one phosphate (compound S13) than with nitrophenyl phosphate. The determination was carried out in seminal plasma, diluted 1:101 using both substrates. 0.01 ml of diluted sample was added to 1 ml of a buffered substrate solution, pH 4.8 and the extinction changes kinetically recorded at 405 or 365 nm.

Experiment [7] has as its system α-glucosidase. Nature of the experiment: Kinetic determination of α-glucosidase activity in human urine. The format is biochemical. The text has this: The activity of α-glucosidase in human urine can be determined very sensitively in a kinetic test with the new substrate 2H-7-0-(α-D-glucopyranosyl)-4-methyl-8-nitrobenzopyran-2-one (compound S1, see Example 1). Since the pH optimum of α-glucosidase is 4 to 6, the activity cannot be measured kinetically with the hitherto customary substrate p-nitrophenyl α-glucopyranoside because the released nitrophenol has only a very low extinction at 405 nm (Table 1).
In contrast, with compound S1 as substrate an absorbance difference in normal human urine of 0,040 per minute could be measured in a kinetic test, and thus the automation of this determination is possible.
A further possibility for the kinetic determination of α-glucosidase activity is the use of 3-H-7-O-(α-glucopyranosyl)phenoxazin-3-one (resorufin-α-D-glucopyranoside). […] At 37°, using 400 μl reagent and 200 μl urine an absorbance difference of 0.136 α per minute was found.

In experiment [8] the test system is β-glucosidase. Nature of the experiment: Specificity check with purified β-glucosidase. The format is biochemical.
Experiment [9] relates to IgE. Nature of the experiment: Determination of IgE with a state of the art enzyme immunoassay. The conditions noted are these: same incubation periods. As to the method:
A substantial increase in sensitivity could be achieved using the new substrates in an enzyme immunoassay of the state of the art. In this assay the IgE concentration is determined, as a measure of an allergy by means of the indirect antibody technique. With the same incubation periods for the different substrates, an approximately 4.3-fold higher absorbance for resorufin-β-galactoside (compound S6) and an approximately 1.7-fold higher absorbance for 3-hydroxy-2-nitropyridine-β-galacto-side was measured than for the commercially available o-nitrophenyl-β-galactoside.

The target of experiment [10] is T4, β-galactosidase (Homo sapiens, UniProt P06280).
T4 construct: from tissue; host or cells: human urine, 10-fold concentrated
T4 sequence (P06280 32-429): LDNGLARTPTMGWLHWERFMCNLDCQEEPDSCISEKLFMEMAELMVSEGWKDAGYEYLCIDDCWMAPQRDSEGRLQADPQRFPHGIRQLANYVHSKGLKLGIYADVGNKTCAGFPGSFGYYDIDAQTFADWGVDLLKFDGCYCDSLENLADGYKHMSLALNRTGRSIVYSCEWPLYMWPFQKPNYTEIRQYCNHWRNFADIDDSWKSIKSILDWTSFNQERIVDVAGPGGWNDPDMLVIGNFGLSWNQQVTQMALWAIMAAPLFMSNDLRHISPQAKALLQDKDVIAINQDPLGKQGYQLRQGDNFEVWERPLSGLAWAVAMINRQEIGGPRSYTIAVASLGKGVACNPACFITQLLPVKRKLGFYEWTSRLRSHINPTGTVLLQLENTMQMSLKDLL
Nature of the experiment: Kinetic determination of galactosidase in human urine with the α-D-galactopyranosyl nitropyridine substrate. The format is biochemical. To be noted: 0.2 ml 10-fold concentrated normal urine + 1 ml buffered substrate solution, 405 nm, 22° C. How it is done: as §1

`Cc1cc(=O)oc2c([N+](=O)[O-])c(O[C@@H]3O[C@H](CO)[C@H](O)[C@H](O)[C@H]3O)ccc12` [compound S15, 2H-7-O-(β-Galactopyranosyl)-4-methyl-8-nitrobenzopyran-2-one]: the “cleavage by β-galactosidase” value in experiment [1] is “not cleaved by β-galactosidase”. The extinction change in [2] (23° C., 366 nm, 200 μl buffered substrate solution + 200 μl urine of normal concentration) is given as 4 mE/min.

Regarding `Cc1ccc(S(=O)(=O)N[C@@H](C)C(=O)Oc2ccc3nc4ccc(=O)cc-4oc3c2)cc1` [tosylalanylresorufin], the detection sensitivity result in [3] is on record as “about 1000 leukocytes per microliter”.

In the case of `CC(=O)N[C@H]1[C@H](Oc2ccc3c(C)cc(=O)oc3c2[N+](=O)[O-])O[C@H](CO)[C@@H](O)[C@@H]1O` [compound S8], the absorbance change is listed as 0,014 A/min in [4] (pH 4.5, 37° C.) and 0,023 A/min in experiment [4] (pH 5.5, 37° C.). The “absorbance change, fold greater than with p-nitrophenyl acetylaminoglucoside” value in experiment [5] (pH 4.5) is listed as roughly 36 fold. Moreover, the delta A/min in experiment [5] (pH 4.5, 22° C., 405 or 365 nm, enzyme solution diluted 1:101) was found to be 0.266 A/min.

For the compound `Cc1cc(=O)oc2c([N+](=O)[O-])c(OP(=O)(O)O)ccc12` [compound S13, 2H-7-O-(Phosphoryl)-4-methyl-8-nitrobenzopyran-2-one], in experiment [6], the “absorbance change, fold greater than for nitrophenyl phosphate” value was “about 13 fold”. In addition, the “Ratio of the absorbance changes” value in experiment [6] (relative to p-nitrophenyl phosphate) turned out to be 13. For the same compound, the “delta A/min” value in [6] (seminal plasma diluted 1:101, pH 4.8, 405 or 365 nm) is on record as 0,0975 A/min.

Regarding `Cc1cc(=O)oc2c([N+](=O)[O-])c(O[C@H]3O[C@H](CO)[C@@H](O)[C@H](O)[C@H]3O)ccc12` [compound S1, 2H-7-O-(α-D-Glucopyranosyl)-4-methyl-8-nitrobenzopyran-2-one], the “absorbance difference per minute” value in experiment [7] (normal human urine, kinetic test) is on record as 0,040 per minute. For the same compound, the “cleavage by β-glucosidase / specificity for α-glucosidase” value in experiment [8] is “not cleaved by β-glucosidase”.

For the compound `O=c1ccc2nc3ccc(O[C@@H]4O[C@H](CO)[C@H](O)[C@H](O)[C@H]4O)cc3oc-2c1` [compound S6, Resorufin-8-β-D-galactopyranoside], the absorbance change in [9] (measuring wavelength 576 nm, same sample) is listed as 0.761; in experiment [2] (578 nm, 37° C., human urine), 0,0038 A/min. Moreover, the “fold higher absorbance than o-nitrophenyl-β-galactoside” value in [9] is reported as “approximately 4.3 fold”.

For `O=[N+]([O-])c1ncccc1O[C@H]1O[C@H](CO)[C@H](O)[C@H](O)[C@H]1O` [compound S3, 3-O-(α-D-Galactopyranosyl)-2-nitropyridine], the extinction difference in experiment [10] was 1.2 mE/min. Further, in experiment [1], the “cleavage by β-galactosidase” value is “not cleaved by β-galactosidase”.

On to `O=c1ccc2nc3ccc(O[C@H]4O[C@H](CO)[C@@H](O)[C@H](O)[C@H]4O)cc3oc-2c1` [resorufin-α-D-glucopyranoside, 3-H-7-O-(α-glucopyranosyl)phenoxazin-3-one], for which, in [7] (37°, 400 μl reagent and 200 μl urine, 578 nm, pH 6), the “absorbance difference per minute” value came out at 0.136 per minute. Also, the “cleavage by β-glucosidase / specificity for α-glucosidase” value in experiment [8] was “specific substrate for α-glucosidase”.

`CC(C)C[C@H](NC(=O)OC(C)(C)C)C(=O)Oc1ccc2nc3ccc(=O)cc-3oc2c1` [Boc-Leu-resorufin]: in experiment [3], the detection sensitivity is given as 2000 leukocytes per microliter.

For the origin of these results see patent US4716222A, “Substrates for hydrolases” (Hoechst Aktiengesellschaft, priority 1984, dated 1987).
